Where no end group is shown, it is not given here. [ ]: non-standard residue; d: D form. Cit = NC(=O)NCCC[C@H](N)C(=O)O; Nle = CCCC[C@H](N)C(=O)O
What was measured:
Test in all cases: REVEAL binding assay
Conditions in all cases: score as percentage of the signal generated by the positive control peptide
HLA-A1 = system: HLA-A1
HLA-A24 = system: HLA-A24
HLA-A29 = system: HLA-A29
HLA-B8 = system: HLA-B8
Excerpt: HLA-A1, HLA-A2, HLA-A3, HLA-A11, HLA-A24, HLA-A29, HLA-B7, HLA-B8, HLA-B14, HLA-B15, HLA-B27, HLA-B35, HLA-B40.
The REVEAL™ binding assay determined the ability of each candidate peptide to bind to one or more MHC class I alleles and stabilizing the MHC-peptide complex. […] Detection is based on the presence or absence of the native conformation of the MHC-peptide complex. Each peptide is given a score relative to the positive control peptide, which is a known T cell epitope.

HLA-B14 = system: HLA-B14
HLA-B15 = system: HLA-B15
HLA-A11 = HLA-A11 (Homo sapiens, UniProt P04439, A114D/F33Y/S129P)
Outline: (§1)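 Synthetic nonamer peptides were tested for their ability to bind and stabilize MHC class I–peptide complexes, detected by the native conformation of the complex. Each peptide is scored relative to a positive-control known T-cell epitope.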

HLA-A2 = HLA-A2 (Homo sapiens, UniProt P04439, D140Y/D185E/D98H/E176V/E277Q/G131W/G231S/I119V/I121R/I166T/I218V/N151K/N90K/P208A/P217A/Q86G/Q94H/R138H/R169H)
Outline: as §1

HLA-A3 = HLA-A3 (Homo sapiens, UniProt P04439)
Outline: as §1

HLA-B27 = HLA-B27 (Homo sapiens, UniProt P01889, D138H/D201E/E176V/E204Q/G107R/H137Y/K202T/N104T/N87E/Q56L/Q94K/R106L/R155S/R180L/S101D/S121N/S48T/Y140D/Y33H/Y91C)
Outline: as §1

HLA-B7 = HLA-B7 (Homo sapiens, UniProt P01889)
Outline: as §1

HLA-B35 = system: HLA-B35
HLA-B40 = system: HLA-B40
Outline: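 Read-out: presence or absence of natively folded MHC–peptide complex. Values expressed as % of positive-control epitope signal per allele, plus putative pass/fail; weaker-binding intermediate control included.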

Sequence of HLA-A3 (P04439 25-299): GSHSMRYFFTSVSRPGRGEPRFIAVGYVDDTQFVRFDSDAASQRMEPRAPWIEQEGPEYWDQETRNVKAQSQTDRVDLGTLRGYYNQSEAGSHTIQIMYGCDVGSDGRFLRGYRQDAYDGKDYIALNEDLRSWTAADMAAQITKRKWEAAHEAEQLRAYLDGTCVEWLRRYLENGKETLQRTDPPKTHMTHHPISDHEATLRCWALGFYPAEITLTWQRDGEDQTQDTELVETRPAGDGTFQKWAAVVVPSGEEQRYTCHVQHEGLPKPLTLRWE
Sequence of HLA-A3 (P61769 21-119, further chain): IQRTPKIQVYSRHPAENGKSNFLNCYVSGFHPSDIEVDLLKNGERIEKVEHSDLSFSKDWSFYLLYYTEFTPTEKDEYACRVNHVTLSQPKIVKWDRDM
Sequence of HLA-B7 (P61769 21-119): as the sequence (P61769 21-119, further chain) above
Sequence of HLA-B7 (P01889 25-299): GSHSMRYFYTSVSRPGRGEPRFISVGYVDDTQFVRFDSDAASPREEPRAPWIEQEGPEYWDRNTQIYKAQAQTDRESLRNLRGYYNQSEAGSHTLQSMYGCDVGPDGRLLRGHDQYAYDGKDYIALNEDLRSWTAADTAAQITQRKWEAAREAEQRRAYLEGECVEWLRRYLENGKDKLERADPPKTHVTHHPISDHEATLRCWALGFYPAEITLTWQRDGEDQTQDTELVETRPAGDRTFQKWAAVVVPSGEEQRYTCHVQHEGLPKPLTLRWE

Row | Substance | REVEAL binding score, HLA-type A1 (HLA-A1) [%] | REVEAL binding score, HLA-type A24 (HLA-A24) [%] | REVEAL binding score, HLA-type A29 (HLA-A29) [%] | REVEAL binding score, HLA-type B8 (HLA-B8) [%] | REVEAL binding score, HLA-type B14 (HLA-B14) [%] | REVEAL binding score, HLA-type B15 (HLA-B15) [%] | REVEAL binding score, HLA-type A11 (HLA-A11) [%] | REVEAL binding score, HLA-type A2 (HLA-A2) [%] | REVEAL binding score, HLA-type A3 (HLA-A3) [%] | REVEAL binding score, HLA-type B27 (HLA-B27) [%] | REVEAL binding score, HLA-type B7 (HLA-B7) [%] | REVEAL binding score, HLA-type B35 (HLA-B35) [%] | REVEAL binding score, HLA-type B40 (HLA-B40) [%]
1 | [Nle]GYIPLIGA | 17.87 | 1.33 | 27.85 | 21.35 | 0.29 | 11.07 | 7.27 | 10.43 | 3.13 | 1.42 | 1.78 | 5.89 | 60.84
2 | GNIPGSTYS | 7.54 | 0.00 | 24.38 | 6.32 | 0.34 | 4.80 | 1.54 | 5.07 | 5.04 | 1.58 | 0.94 | 7.86 | 55.59
3 | GGQIIGGNY | 24.04 | 0.39 | 14.38 | 10.52 | 0.25 | 90.62 | 2.40 | 7.06 | 2.23 | 0.24 | 1.09 | 2.22 | 15.03
4 | QIVGGVYLL | 20.25 | 1.01 | 13.36 | 13.15 | 0.37 | 15.07 | 1.96 | 57.04 | 2.36 | 0.60 | 28.66 | 4.01 | 24.51
5 | YATGNLPGC | 8.10 | 1.20 | 18.82 | 9.51 | 0.41 | 5.09 | 2.16 | 22.46 | 3.67 | 2.44 | 0.76 | 4.52 | 77.49
6 | QIIGGNYLI | 21.63 | 12.60 | 13.60 | 10.61 | 0.40 | 29.59 | 4.06 | 73.54 | 6.30 | 0.91 | 52.04 | 8.99 | 83.60
7 | IRNLGRVIE | 14.22 | 0.61 | 11.06 | 9.10 | 30.77 | 4.06 | 5.31 | 8.77 | 3.89 | 1.84 | 1.43 | 1.98 | 21.40
8 | GQIIGGNYL | 20.65 | 0.47 | 14.17 | 11.90 | 0.22 | 173.66 | 2.77 | 12.96 | 3.01 | 0.64 | 2.39 | 2.60 | 31.55
9 | AEL[Nle]GYIPL | 16.63 | 0.37 | 20.78 | 14.74 | 0.12 | 10.20 | 3.61 | 7.49 | 3.05 | 0.77 | 1.11 | 1.91 | 72.73
10 | TGNLPGCSF | 11.97 | 4.81 | 18.89 | 8.62 | 0.86 | 45.07 | 2.56 | 5.18 | 3.71 | 2.37 | 2.38 | 11.40 | 73.71
11 | YVTGNIPGS | 13.33 | 2.71 | 10.29 | 12.40 | 0.76 | 6.16 | 5.18 | 6.88 | 5.34 | 1.98 | 2.70 | 4.42 | 88.29
12 | GNLPGCSFS | 6.44 | 1.13 | 13.48 | 8.71 | 0.81 | 3.96 | 2.41 | 6.11 | 3.54 | 13.44 | 1.84 | 4.80 | 80.68
13 | KVIDTLTCG | 15.77 | 0.57 | 13.16 | 13.17 | 0.18 | 10.13 | 8.91 | 19.13 | 4.27 | 0.63 | 0.57 | 2.74 | 32.89
14 | NLGRVIETL | 18.24 | 0.86 | 16.44 | 15.58 | 0.07 | 16.29 | 4.53 | 11.97 | 2.86 | 1.66 | 1.47 | 2.82 | 38.91
15 | GP[Cit]IGVRAT | 18.60 | 0.16 | 11.88 | 9.99 | 0.13 | 7.29 | 2.72 | 9.16 | 3.48 | 0.59 | 5.38 | 2.25 | 19.61

— US9550811B2, “Peptide scaffold design” (BIONOR IMMUNO AS, priority 2010, dated 2017)
